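Exposure lasted 48 hours, with cells grown in 96-well plates and compounds tested at five concentrations. At the GI50, growth is halved.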 The source made the active and inactive calls. Rule as the data show it: active = GI50 up to about 1.1 µM and inactive = higher.

Among the test systems are MDA-MB-231; MCF7; SF-539; SF-268; SN12C; SK-MEL-28; OVCAR-8; OVCAR-3; SR; SK-OV-3; K562; NCI-H460; COLO 205; HCT-15; PC-3; BT-549; MDA-MB-435; T47D; MOLT-4; LOX IMVI.
What all share (test): growth of human tumour cells (NCI), 48 h

As for `c1csc(-c2cc(-c3ccsc3)c(-c3ccsc3)s2)c1`, the GI50 in the assay on MDA-MB-231 is > 100 µM (inactive); with MCF7, 24.8 µM (inactive); in the assay on SF-539, > 100 µM (inactive); in the assay with SF-268, > 100 µM (inactive); in the assay with SN12C, > 100 µM (inactive); in the assay with SK-MEL-28, > 100 µM (inactive). Besides, the GI50 in the assay on OVCAR-8, with OVCAR-3, in the assay with SR, with SK-OV-3, in the assay with K562 and in the assay with NCI-H460 was > 100 µM (inactive) throughout. Also, the GI50 in the assay with COLO 205 was 89.7 µM (inactive); in the assay with HCT-15, 24 µM; in the assay on PC-3 it was > 100 µM (inactive); in the assay on BT-549, > 100 µM (inactive); in the assay on MDA-MB-435, > 100 µM (inactive); with T47D, 3.49 µM (inactive). Also, the GI50 in the assay on MOLT-4 was > 100 µM (inactive).
With `CCCCON1C[C@@H](O)C(O)[C@@H](O)C1` (some centres not stated), the GI50 with MDA-MB-231, with MCF7, in the assay with LOX IMVI, in the assay with SF-539, in the assay on SF-268 and in the assay on SN12C was > 100 µM (inactive) throughout. Besides, the GI50 with SK-MEL-28, in the assay with OVCAR-8, in the assay on OVCAR-3, in the assay on SR, in the assay on K562 and with NCI-H460 was > 100 µM (inactive) each time. The GI50 is > 100 µM (inactive) with COLO 205; greater than 100 µM in the assay on HCT-15; > 100 µM (inactive) in the assay with PC-3; > 100 µM (inactive) with BT-549; > 100 µM (inactive) with MDA-MB-435; > 100 µM (inactive) with T47D. The GI50 in the assay with MOLT-4 is > 100 µM (inactive).
On to `COc1ccc(NC2=CC(=O)C(=O)c3ccccc32)nn1`, for which the GI50 was 3.69 µM (inactive) with MDA-MB-231; 0.557 µM (active) in the assay with MCF7; 1.66 µM (inactive) in the assay on LOX IMVI; 0.902 µM (active) in the assay with SF-539; 1.51 µM (inactive) in the assay with SF-268; 1.6 µM (inactive) in the assay with SN12C. Moreover, the GI50 with SK-MEL-28 is 1.08 µM (active); in the assay with OVCAR-8, 1.67 µM (inactive); in the assay on OVCAR-3, 1.2 µM (inactive); with SK-OV-3, 2.17 µM (inactive); in the assay with K562 it was 0.224 µM (active); in the assay with NCI-H460 it was 1.54 µM (inactive). Besides, the GI50 is 1.73 µM (inactive) in the assay on COLO 205; 0.423 µM in the assay with HCT-15; 2.73 µM (inactive) in the assay with PC-3; 0.743 µM (active) in the assay with BT-549; 0.197 µM (active) in the assay on MDA-MB-435; 3.4 µM (inactive) in the assay with T47D. For the same compound, the GI50 with MOLT-4 was 0.546 µM (active).
Turning to `Brc1ccc(C2(N3CCCCC3)CCCCC2)s1`, the GI50 with MDA-MB-231 is 32 µM (inactive); in the assay with MCF7 it was 30.9 µM (inactive); in the assay on LOX IMVI it was 11.7 µM (inactive); in the assay with SF-268, 48.9 µM (inactive); in the assay on SN12C, > 100 µM (inactive); in the assay on OVCAR-3, 38.7 µM (inactive). Further, the GI50 with SR is 19.5 µM (inactive); with SK-OV-3 it was 45.2 µM (inactive); in the assay with K562, 21.1 µM (inactive); in the assay on NCI-H460 it was 26.7 µM (inactive); in the assay with PC-3, 34.1 µM (inactive); with BT-549 it was 30.5 µM (inactive). Further, the GI50 in the assay with MDA-MB-435 is 23.9 µM (inactive); with T47D, 11.9 µM (inactive); in the assay with MOLT-4, 16.4 µM (inactive).
For the compound `NC(=O)c1cc2ccc(O)cc2o/c1=N/NC(=O)c1ccccc1`, the GI50 with MDA-MB-231 is 80.5 µM (inactive); in the assay on MCF7, > 100 µM (inactive); with LOX IMVI, 47.8 µM (inactive); in the assay on SF-268 it was > 100 µM (inactive); in the assay with SN12C, 63.7 µM (inactive); with SK-MEL-28 it was 76.4 µM (inactive). Further, the GI50 in the assay with OVCAR-8 is 67.8 µM (inactive); in the assay with OVCAR-3 it was 80.5 µM (inactive); in the assay with SR, 22.2 µM (inactive); in the assay with SK-OV-3 it was 61.2 µM (inactive); with K562, 75.5 µM (inactive); with NCI-H460, 40.2 µM (inactive). In addition, the GI50 was > 100 µM (inactive) with COLO 205; 79.3 µM with HCT-15; 83.2 µM (inactive) with PC-3; 52.2 µM (inactive) in the assay with BT-549; 74.3 µM (inactive) in the assay on MDA-MB-435; 15.6 µM (inactive) in the assay with T47D. For the same compound, in the assay with MOLT-4, the GI50 is 35.1 µM (inactive).
For `COC(=O)c1c(O)ccc2c1c1c(n2Cc2ccccc2Cl)C(=O)c2ccccc2C1=O`, the GI50 is 15.3 µM (inactive) in the assay with MDA-MB-231; 6.73 µM (inactive) with MCF7; 15.4 µM (inactive) in the assay on SF-539; 12.4 µM (inactive) in the assay on SF-268; 10.2 µM (inactive) with SN12C; 15.6 µM (inactive) in the assay on SK-MEL-28. Further, the GI50 in the assay on OVCAR-8 is 16 µM (inactive); in the assay with OVCAR-3 it was 10 µM (inactive); in the assay with SR, 14.6 µM (inactive); in the assay on SK-OV-3, 12.9 µM (inactive); in the assay on K562, 14.3 µM (inactive); in the assay on NCI-H460, 6.78 µM (inactive). The GI50 with COLO 205 was 4.13 µM (inactive); in the assay with HCT-15 it was 12.7 µM; in the assay on PC-3, 11.5 µM (inactive); with BT-549 it was 12.6 µM (inactive); in the assay on MDA-MB-435 it was 10.7 µM (inactive); in the assay on T47D it was 7.01 µM (inactive). Also, the GI50 in the assay with MOLT-4 was 7.03 µM (inactive).
As to `CN1CC=C(c2c(N)nc(N)[nH]c2=O)CC1`, the GI50 in the assay on MDA-MB-231, with MCF7, in the assay on SF-539, in the assay with SF-268, in the assay on SN12C and in the assay on SK-MEL-28 was > 100 µM (inactive) throughout. Moreover, the GI50 with OVCAR-8, in the assay with OVCAR-3, in the assay with SR, in the assay with SK-OV-3, in the assay with K562 and in the assay with NCI-H460 was > 100 µM (inactive) in each case. Further, the GI50 is > 100 µM (inactive) in the assay with COLO 205; greater than 100 µM with HCT-15; > 100 µM (inactive) in the assay on PC-3; > 100 µM (inactive) with BT-549; > 100 µM (inactive) in the assay with MDA-MB-435; > 100 µM (inactive) in the assay on T47D. Moreover, in the assay on MOLT-4, the GI50 is > 100 µM (inactive).
As to `COc1cc(N(C)C)c(OC)cc1/C=C\c1ccnc2ccccc12`, the GI50 is 2.8 µM (inactive) in the assay with MDA-MB-231; 0.462 µM (active) in the assay with MCF7; 0.746 µM (active) in the assay on LOX IMVI; 2.33 µM (inactive) in the assay on SF-539; 3.63 µM (inactive) in the assay on SF-268; 6.32 µM (inactive) with SN12C. In addition, the GI50 in the assay on SK-MEL-28 is 1.86 µM (inactive); with OVCAR-8 it was 9.44 µM (inactive); in the assay with OVCAR-3, 1.72 µM (inactive); with SK-OV-3, > 10 µM (inactive); in the assay with K562 it was 4.01 µM (inactive); with NCI-H460, 2.96 µM (inactive). For the same compound, the GI50 was 3.55 µM (inactive) in the assay with COLO 205; 0.652 µM in the assay on HCT-15; 2.92 µM (inactive) with PC-3; 4.34 µM (inactive) in the assay with BT-549; 1.75 µM (inactive) in the assay on MDA-MB-435; 0.344 µM (active) in the assay with T47D. The GI50 in the assay on MOLT-4 was 3.4 µM (inactive).
For the compound `CC(C)(/C=N\O)NO`, the GI50 in the assay with MDA-MB-231, in the assay on MCF7, in the assay with LOX IMVI, with SF-268, in the assay with SN12C and in the assay with OVCAR-8 was > 10 µM (inactive) in each case. Further, the GI50 was > 10 µM (inactive) with OVCAR-3; > 10 µM (inactive) with SR; > 10 µM (inactive) in the assay on K562; > 10 µM (inactive) with NCI-H460; > 10 µM (inactive) in the assay on COLO 205; greater than 10 µM in the assay with HCT-15. The GI50 in the assay on PC-3, in the assay with BT-549, in the assay on MDA-MB-435, with T47D and in the assay on MOLT-4 was > 10 µM (inactive) throughout.
For the compound `C[C@]12CC(c3ccccc3O1)C(C(N)=O)C(=O)N2` (some centres not stated), the GI50 in the assay on MDA-MB-231, in the assay on MCF7, in the assay with LOX IMVI, in the assay with SF-268, with SN12C and with SK-MEL-28 was > 100 µM (inactive) in each case. Moreover, the GI50 with OVCAR-8, in the assay with OVCAR-3, in the assay on SK-OV-3, with K562, in the assay with NCI-H460 and with COLO 205 was > 100 µM (inactive) each time. The GI50 is greater than 100 µM with HCT-15; > 100 µM (inactive) with PC-3; > 100 µM (inactive) with BT-549; > 100 µM (inactive) in the assay with MDA-MB-435; > 100 µM (inactive) in the assay with T47D; > 100 µM (inactive) in the assay with MOLT-4.
As for `O=C(O)Cn1ccnc1[N+](=O)[O-]`, the GI50 with MDA-MB-231, with MCF7, in the assay on SF-539, in the assay on SF-268, in the assay with SN12C and in the assay on SK-MEL-28 was > 100 µM (inactive) in each case. The GI50 in the assay on OVCAR-8, in the assay on OVCAR-3, in the assay on SR, with SK-OV-3, in the assay with K562 and in the assay with NCI-H460 was > 100 µM (inactive) each time. The GI50 is > 100 µM (inactive) in the assay on COLO 205; greater than 100 µM in the assay with HCT-15; > 100 µM (inactive) in the assay on PC-3; > 100 µM (inactive) in the assay on BT-549; > 100 µM (inactive) in the assay on MDA-MB-435; > 100 µM (inactive) in the assay on T47D. Further, the GI50 with MOLT-4 is > 100 µM (inactive).

The record behind these values is ChEMBL document CHEMBL1201862, “PubChem BioAssay data set” (2004).
